Values of other authors in patent publication US20100144855A1, “APPLICATION OF SEDOISOPROSAN FOR PREPARATION OF MEDICINE FOR TREATMENT OF HUMAN HBeAg POSITIVE CHRONIC HEPATITIS B” (priority 2008, published 2010).

Experiments:
HBsAg and HBeAg = conditions: animal experiments; cited from earlier work
lymphocytes = conditions: sedoisoprosan associated with ConA and LPS, in vitro; cited from earlier work

In the case of `CC1(C)OC2C3COC(CO)(O3)C(O)C2O1` (stereo not drawn) [sedoisoprosan, isopropylidene sedoheptulosan], the “secretion of HBsAg and HBeAg” value (HBsAg and HBeAg) is listed as “inhibit”, the “mitogenic activity of ConA and LPS” value (lymphocytes) is listed as “enhance” and the transformation of lymphocytes (lymphocytes) is listed as “promote”.
